Assay results as given in PMC6753678, “Fueling Open Innovation for Malaria Transmission-Blocking Drugs: Hundreds of Molecules Targeting Early Parasite Mosquito Stages” (Frontiers in Microbiology, 2019).
Like-named read-outs stand apart in the source and are kept apart here.

Legend:
HepG2 cells [1] = experiment: HepG2 cytotoxicity assay; details: for IC50: read-out: HepG2 cytotoxicity assay IC50, dose response confirmation
Summary of the method: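 HepG2 cells, 2,500 per well in MEM with 10% FBS and 1% NEAA, exposed to compounds for 48 h at 37°C, 5% CO2. Viability read by fluorescence; percent inhibition relative to 50 μM doxorubicin and DMSO controls.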

[2] = system: P. falciparum late stage (stages IV-V) gametocytes; set-up: method as in Almela et al 2016; details: ref Almela et al 2016, read-out: Pf GCT ATP IC50, cited from earlier work
[3] = system: P. falciparum female gametocytes; set-up: method as in Miguel-Blanco et al 2017; details: TCAMS screen comparison; ref Miguel-Blanco et al 2017; read-out: Pf FGAA IC50; cited from earlier work
HepG2 cells [4] = details: cited from earlier work
[5] = system: P. falciparum female gametocytes; experiment: P. falciparum female gametogenesis assay (Pf FGAA); details: 1: YES; 0: NO
[6] = system: P. falciparum late stage (stages IV-V) gametocytes; experiment: P. falciparum late stage gametocyte ATP depletion assay (Pf GC-ATP); details: 1: YES; 0: NO
[7] = system: 3D7-strain P. falciparum asexual parasites; experiment: P. falciparum asexual growth inhibition assay (Pf GIA); assay type: cell-based, Plasmodium falciparum; details: dose response confirmation; read-out: Pf asexual growth inhibition assays IC50
Summary of the method: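 Read-out was lactate dehydrogenase activity measured by absorbance at 650 nm after freezing and thawing, against 50 μM chloroquine and DMSO controls. Before that, asexual 3D7 cultures (0.25% parasitemia, 2% hematocrit) had 72 h dose-response compound exposure at 37°C in 5% CO2/5% O2/90% N2; three independent replicates averaged.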

[8] = system: P. berghei ookinete development; details: for Is compound selective in assay? Pb ODA active?: 1: YES, 0: NO; for % inhibition, Replicate A / % inhibition, Replicate B: primary screen at 1 μM
[9] = HepG2 cytotoxicity unified across the three screens
[10] = value reported with the Pf GCT ATP screen, ref Almela et al 2016
[11] = value reported with the Pf FGAA screen, ref Miguel-Blanco et al 2017
[12] = HepG2 values of the three screens unified
[13] = read-out: Pb ODA IC50, this manuscript
[14] = read-out: Pb Ookinete development assay IC50, dose response confirmation

SMILES: CNC(=S)NN=C(C)c1ccccn1 [TCMDC-123475]
- Unified cytotox (HepG2 cells [1]; [9]): 25.00 µM
- IC50 ([2]; TCAMS screen comparison): 1170 nM
- IC50 [3]: 14 nM
- HepG2 cytoxicity (HepG2 cells [4]; [10]): >25 µM
- Is compound selective in assay? Pf FGAA active? [5]: 1 (1: YES)
- Is compound selective in assay? Pf GC-ATP active? [6]: 1 (1: YES)

SMILES: COc1ccc(C[C@H](N)C(=O)N[C@H]2[C@@H](O)[C@H](n3cnc4c(N(C)C)ncnc43)O[C@@H]2CO)cc1 [TCMDC-123493]
- Unified cytotox (HepG2 cells [1]; [9]): 2.37 µM
- IC50 ([2]; TCAMS screen comparison): 560 nM
- IC50 [3]: 290 nM
- HepG2 cytoxicity (HepG2 cells [4]; [11]): 1.80 µM
- HepG2 cytoxicity (HepG2 cells [4]; [10]): 2.95 µM
- Is compound selective in assay? Pf FGAA active? [5]: 0 (0: NO)
- Is compound selective in assay? Pf GC-ATP active? [6]: 0 (0: NO)

SMILES: CCN(CC)CCCn1c(N)c(-c2nc3ccccc3[nH]2)c2nc(C#N)c(C#N)nc21 [TCMDC-123680]
- Unified cytotox (HepG2 cells [1]; [9]): 6.48 µM
- IC50 ([2]; TCAMS screen comparison): 140 nM
- IC50 [3]: 740 nM
- HepG2 cytoxicity (HepG2 cells [4]; [11]): 4.27 µM
- HepG2 cytoxicity (HepG2 cells [4]; [10]): 8.7 µM
- Is compound selective in assay? Pf FGAA active? [5]: 0 (0: NO)
- Is compound selective in assay? Pf GC-ATP active? [6]: 1 (1: YES)

SMILES: COc1cc2nc(N3CCN(c4nc(N)c5cc(OC)c(OC)cc5n4)CC3)nc(N)c2cc1OC [TCMDC-123865]
- Unified cytotox (HepG2 cells [1]; [9]): 52.49 µM
- IC50 ([2]; TCAMS screen comparison): 260 nM
- IC50 [3]: 580 nM
- HepG2 cytoxicity (HepG2 cells [4]; [11]): 52.49 µM
- HepG2 cytoxicity (HepG2 cells [4]; [10]): >25 µM
- Is compound selective in assay? Pf FGAA active? [5]: 1 (1: YES)
- Is compound selective in assay? Pf GC-ATP active? [6]: 1 (1: YES)

SMILES: [O-][s+]1c(Cl)c(-c2ccc(Cl)cc2)c2ccc(Cl)cc21 (centres unmarked) [TCMDC-124011]
- Unified cytotox (HepG2 cells [1]; [9]): 12.08 µM
- IC50 ([2]; TCAMS screen comparison): 20 nM
- IC50 [3]: 36.6 nM
- HepG2 cytoxicity (HepG2 cells [4]; [11]): 11.35 µM
- HepG2 cytoxicity (HepG2 cells [4]; [10]): 12.8 µM
- Is compound selective in assay? Pf FGAA active? [5]: 1 (1: YES)
- Is compound selective in assay? Pf GC-ATP active? [6]: 1 (1: YES)

SMILES: C=CCN(C(=O)c1ccc(Cl)c([N+](=O)[O-])c1)c1nc(-c2ccccc2)cs1 [TCMDC-124436]
- Unified cytotox (HepG2 cells [1]; [9]): 100.00 µM
- IC50 ([2]; TCAMS screen comparison): 110 nM
- IC50 [3]: 130 nM
- HepG2 cytoxicity (HepG2 cells [4]; [11]): >100 µM
- HepG2 cytoxicity (HepG2 cells [4]; [10]): >25 µM
- Is compound selective in assay? Pf FGAA active? [5]: 1 (1: YES)
- Is compound selective in assay? Pf GC-ATP active? [6]: 1 (1: YES)

SMILES: Cc1sc2ncnc(Sc3nnc(N)s3)c2c1C [TCMDC-124542]
- Unified cytotox (HepG2 cells [1]; [9]): 36.31 µM
- IC50 ([2]; TCAMS screen comparison): 300 nM
- IC50 [3]: 770 nM
- HepG2 cytoxicity (HepG2 cells [4]; [11]): 36.31 µM
- HepG2 cytoxicity (HepG2 cells [4]; [10]): >25 µM
- Is compound selective in assay? Pf FGAA active? [5]: 1 (1: YES)
- Is compound selective in assay? Pf GC-ATP active? [6]: 1 (1: YES)

SMILES: Cc1ccc(C)c(CC(=O)N2CCC(n3c(C)nc4ccc(F)cc43)CC2)c1 [TCMDC-124790]
- IC50 [7]: 252 nM
- HepG2 cytoxicity (Pb ODA, this manuscript) (HepG2 cells [1]; HepG2, this manuscript): 57.54 µM
- Unified cytotox (HepG2 cells [1]; [12]): 57.54 µM
- IC50 (HepG2 cells [1]): 57500 nM
- Is compound selective in assay? Pb ODA active? [8]: 1 (1: YES)
- % inhibition, Replicate A [8]: 55.29%
- % inhibition, Replicate B [8]: 63.09%
- IC50 [8, 13]: 3660 nM
- IC50 [8, 14]: 3660 nM
- IC50 [2]: 920 nM
- HepG2 cytoxicity (Pf GCT ATP screen) (HepG2 cells [4]; ref Almela et al 2016): >25 µM
- Is compound selective in assay? Pf GC-ATP active? [6]: 1 (1: YES)

SMILES: COc1cccc(CC(=O)N2CCC(n3c(C)nc4ccc(C)cc43)CC2)c1 [TCMDC-124791]
- IC50 [7]: 98 nM
- Unified cytotox (HepG2 cells [1]; [12]): 100.00 µM
- IC50 (HepG2 cells [1]): 100000 nM
- Is compound selective in assay? Pb ODA active? [8]: 1 (1: YES)
- % inhibition, Replicate A [8]: 79.91%
- % inhibition, Replicate B [8]: 77.59%
- IC50 [8, 13]: 1120 nM
- IC50 [8, 14]: 1120 nM
- IC50 [2]: 470 nM
- HepG2 cytoxicity (Pf GCT ATP screen) (HepG2 cells [4]; ref Almela et al 2016): >25 µM
- Is compound selective in assay? Pf GC-ATP active? [6]: 1 (1: YES)
